Assay results reported in article PMC3224213, “Bacterial membrane activity of α-peptide/β-peptoid chimeras: Influence of amino acid composition and chain length on the activity against different bacterial strains” (BMC Microbiology, 2011).

Tests used:
[1] = parameters: method as in PMID 18675778; settings: unilamellar liposomes mimicking human cell membranes; ref [24]; cited from earlier work
S. marcescens = experiment: ATP leakage bioluminescence assay; format: cell-based, Serratia marcescens; settings: 1000 μg/mL chimera
Method: (§1) Pore formation as caused by peptide addition was determined by measuring ATP leakage from the bacterial cell using a bioluminescence assay. The assay was used to estimate differences between sub-typical chimeras 1, 2 and 3 on S. aureus and S. marcescens and to evaluate the effect of chain length of mixed type chimeras 4a, 4b and 4c on S. aureus. In brief, bacteria were grown in TSB at 37°C for 24 hours and then re-inoculated in TSB at 37°C for 6-8 hours until an absorbance at 546 nm of 2.5 for S. aureus and 2.0 for S. marcescens and then harvested (10 min at 2,000 × g). The bacteria were grown to a high absorbance since a high concentration of bacteria was necessary in order to get a measurable response in the ATP leakage assay. Cells were washed once in 50 mM potassium phosphate buffer (pH 7.0) and once in 50 mM HEPES buffer (pH 7.0), before the pellet was resuspended in HEPES buffer to an OD546 ~ 10, and then stored on ice. Before chimera addition bacteria were pre-incubated with 0.2% (w/v) glucose to energize the cells. In general a chimera dose of 1000 μg/mL (corresponding to 280-552 μM for all chimeras) was used for all assays; however, for determining dose response curves additional doses of 100 (28-55 μM), 250 (71-137 μM) and 500 (140-276 μM) μg/mL were tested, and only the immediate release was noted. Total ATP and extracellular ATP were determined with a luminometer […]. Intracellular volumes of S. aureus and S. marcescens (0.85 μm^3 and 1.7 μm^3, respectively) were subtracted from the total volume before calculating the extracellular ATP concentration; the intracellular ATP concentration could then be calculated from this and the total ATP. ATP leakage kinetics was determined on a bacterial suspension prepared as above. Samples were taken at time 0, 5, 10, 20, 30 and 60 minutes and viable counts determined. Both the ATP leakage assay and killing kinetics performed under the same assay conditions were performed in two independent experiments.

S. aureus = experiment: ATP leakage bioluminescence assay; format: cell-based, Staphylococcus aureus; settings: 1000 μg/mL chimera
Method: as §1

[2] = tested on: twelve food-borne and clinical bacterial strains; format: cell-based; settings: ratio of MIC values, Table 2
Method: Initial activity experiments were carried out with twelve strains from seven bacterial species representing common laboratory strains and clinical strains derived from both food-borne and nosocomial infections (Table 1). Stock cultures were stored at -80°C in 4% (w/v) glycerol, 0.5% (w/v) glucose, 2% (w/v) skimmed milk powder and 3% (w/v) tryptone soy powder. All experiments were carried out with bacteria incubated for one night (i.e. approximately 18 hours) at 37°C. Experiments were performed in cation-adjusted Mueller Hinton II broth (MHB) (Becton Dickinson 212322) adjusted to pH 7.4 or Tryptone Soy Broth (TSB) (Oxoid CM0129) for the ATP leakage assays. Brain Heart Infusion (BHI) (CM1135) with agar (VWR 20768.292) 1.5% as gelling agent was used throughout for colony plating.
The Minimum Inhibitory Concentration (MIC) of the chimeras was determined against the spectrum of bacteria using the microdilution method according to guidelines of the Clinical and Laboratory Standards Institute (CLSI). Chimera 1:2 serial dilutions were prepared from 1,024 μg/mL stock solutions to give a final range of 512-0.5 μg/mL in the wells. This corresponds to a final range of 144 to 0.14 μM for the heaviest chimera (i.e. chimera 4c) and of 282 to 0.27 μM for the lightest chimera (i.e. chimera 4a). Colonies grown overnight (i.e. approximately 18 hours) on BHI agar were suspended in 0.9% saline to give a turbidity of 0.13 at OD546 (approximately 1 × 10^8 CFU/mL), and then diluted in MHB pH 7.4 to a final concentration of 5 × 10^5 CFU/mL in each well. Following CLSI guidelines the media for testing of Listeria monocytogenes strains were supplemented with 2.5% lysed horse blood. Polypropylene plates (Nunc 442587) were used to minimize peptide binding and incubation time was 18-20 hours at 37°C. MIC was determined in a minimum of two technical replicates as the lowest concentration of the peptide analogue where no visible growth was found. The Minimum Bactericidal Concentration (MBC) was determined by plating 10 μL of the suspension from the first three wells without growth on BHI agar and incubating these for 24 hours at 37°C. MBC was the lowest concentration at which a 99.9% reduction in CFU/mL was observed. Activity is expressed in μmol/L to enable a direct comparison of analogues with different length (= size).

## CC(=O)N[C@@H](CCCCN)C(=O)N(CCC(=O)N[C@@H](CCCCN)C(=O)N(CCC(=O)N[C@@H](CCCCN)C(=O)N(CCC(=O)N[C@@H](CCCCN)C(=O)N(CCC(=O)N[C@@H](CCCCN)C(=O)N(CCC(=O)N[C@@H](CCCCN)C(=O)N(CCC(=O)N[C@@H](CCCCN)C(=O)N(CCC(=O)N[C@@H](CCCCN)C(=O)N(CCC(N)=O)[C@@H](C)c1ccccc1)[C@@H](C)c1ccccc1)[C@@H](C)c1ccccc1)[C@@H](C)c1ccccc1)[C@@H](C)c1ccccc1)[C@@H](C)c1ccccc1)[C@@H](C)c1ccccc1)[C@@H](C)c1ccccc1 [Chimera 3]
[1]
  ability to induce calcein leakage: positive response
S. marcescens
  ATP leakage (in words): caused leakage of ATP
S. aureus
  ATP leakage (in words): caused leakage of ATP
[2]
  lower activity compared to chimera 2 against E.coli: 2-7 fold
  lower activity compared to chimera 2 against S. aureus and K. pneumoniae: 6-13 fold
